For one assay, the target named is CDK4 (Homo sapiens, UniProt P11802). The assay is described as follows: In vitro kinase specificity profiling. The assay is classed as biochemical.
The next assay deals with CDK6 (Homo sapiens, UniProt Q00534). The assay is described as follows: In vitro kinase specificity profiling. The assay is classed as biochemical.
The next assay deals with 4T1 tumor xenograft. Briefly: 4T1 tumor xenograft model with ES-072 and/or anti-CTLA4. The assay is classed as in vivo, BALB/c mice. The method, then:
Fig. 6 ARIH1 promotes anti-tumor immunity via PD-L1 degradation. a Immunoblot of PD-L1 and ARIH1 (HA) in H1975 cells transfected with HA-ARIH1 (WT or Y392C); HA-tagged empty vector (HA-EV) was transfected as a negative control. b Co-IP analysis for the interaction of K48-ubiquitin, ARIH1 (HA), and PD-L1 in HEK293T cells transfected with Flag-PD-L1 and HA-ARIH1 (WT or Y392C) in the presence of 10 μM MG132 for 6 h. c 4T1 cells were infected with an empty vector (CTRL) or two different ARIH1-overexpressing lentiviral preparations (OE#1 and OE#2). ARIH1 and PD-L1 levels were determined by immunoblotting. d–f Tumor growth (d, e) of CTRL (n = 10) and ARIH1-OE cells (n = 11) in BALB/c mice and final tumor weights (f). […]
For xenograft model with 4T1 cells and combination therapy with ES-072 and anti-CTLA4, 5 × 10^5 4T1 cells suspended in 50 μL PBS and Matrigel (1 : 1 v/v) were injected into the fourth breast fat pad. On days 3 after injection, tumor size was measured and calculated by using the formula 1/2 × length × width^2. […]
Excised tumors were digested in collagenase/hyaluronidase and DNase at 37 °C for 45 min to make cell suspension with a 45 μm filter (BD Bioscience). […] Data acquisition was performed using flow cytometry (Beckman Coulter Cytoflex) and data were analyzed using CytExpert V2.3 software. […]

The target in another assay is HER2 (Homo sapiens, UniProt P04626). The assay is described as follows: In vitro kinase specificity profiling. The assay is classed as biochemical.
For a further assay, the target named is PDGFRa (Homo sapiens, UniProt P16234). Briefly: In vitro kinase specificity profiling. The assay is classed as biochemical.
The target in a further assay is IGF1R (Homo sapiens, UniProt P08069). The assay is described as follows: In vitro kinase specificity profiling. The assay is classed as biochemical.
Another assay concerns the target KDR(VEGFR2) (Homo sapiens, UniProt P35968). The assay is described as follows: In vitro kinase specificity profiling. The assay is classed as biochemical.

pIC50: −log10 of the molar value.

Sequence of CDK4 (P11802 whole entry, species assumed): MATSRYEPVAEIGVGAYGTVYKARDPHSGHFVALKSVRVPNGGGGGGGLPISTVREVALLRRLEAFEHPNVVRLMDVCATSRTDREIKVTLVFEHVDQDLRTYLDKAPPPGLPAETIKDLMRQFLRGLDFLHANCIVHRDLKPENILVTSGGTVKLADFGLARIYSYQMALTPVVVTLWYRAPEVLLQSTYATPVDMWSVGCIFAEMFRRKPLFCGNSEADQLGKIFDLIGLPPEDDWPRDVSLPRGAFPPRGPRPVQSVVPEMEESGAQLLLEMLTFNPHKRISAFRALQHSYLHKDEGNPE
Sequence of CDK4 (P30281 whole entry partner, species assumed): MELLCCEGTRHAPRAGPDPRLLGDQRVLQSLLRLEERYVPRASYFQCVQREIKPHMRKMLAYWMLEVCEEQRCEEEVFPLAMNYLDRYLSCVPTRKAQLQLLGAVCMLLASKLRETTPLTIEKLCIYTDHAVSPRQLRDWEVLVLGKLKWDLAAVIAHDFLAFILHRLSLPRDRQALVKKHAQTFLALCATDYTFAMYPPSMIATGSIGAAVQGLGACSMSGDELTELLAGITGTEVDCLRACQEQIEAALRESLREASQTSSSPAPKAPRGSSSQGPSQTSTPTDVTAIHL
Sequence of HER2 (P04626 23-1255, species assumed): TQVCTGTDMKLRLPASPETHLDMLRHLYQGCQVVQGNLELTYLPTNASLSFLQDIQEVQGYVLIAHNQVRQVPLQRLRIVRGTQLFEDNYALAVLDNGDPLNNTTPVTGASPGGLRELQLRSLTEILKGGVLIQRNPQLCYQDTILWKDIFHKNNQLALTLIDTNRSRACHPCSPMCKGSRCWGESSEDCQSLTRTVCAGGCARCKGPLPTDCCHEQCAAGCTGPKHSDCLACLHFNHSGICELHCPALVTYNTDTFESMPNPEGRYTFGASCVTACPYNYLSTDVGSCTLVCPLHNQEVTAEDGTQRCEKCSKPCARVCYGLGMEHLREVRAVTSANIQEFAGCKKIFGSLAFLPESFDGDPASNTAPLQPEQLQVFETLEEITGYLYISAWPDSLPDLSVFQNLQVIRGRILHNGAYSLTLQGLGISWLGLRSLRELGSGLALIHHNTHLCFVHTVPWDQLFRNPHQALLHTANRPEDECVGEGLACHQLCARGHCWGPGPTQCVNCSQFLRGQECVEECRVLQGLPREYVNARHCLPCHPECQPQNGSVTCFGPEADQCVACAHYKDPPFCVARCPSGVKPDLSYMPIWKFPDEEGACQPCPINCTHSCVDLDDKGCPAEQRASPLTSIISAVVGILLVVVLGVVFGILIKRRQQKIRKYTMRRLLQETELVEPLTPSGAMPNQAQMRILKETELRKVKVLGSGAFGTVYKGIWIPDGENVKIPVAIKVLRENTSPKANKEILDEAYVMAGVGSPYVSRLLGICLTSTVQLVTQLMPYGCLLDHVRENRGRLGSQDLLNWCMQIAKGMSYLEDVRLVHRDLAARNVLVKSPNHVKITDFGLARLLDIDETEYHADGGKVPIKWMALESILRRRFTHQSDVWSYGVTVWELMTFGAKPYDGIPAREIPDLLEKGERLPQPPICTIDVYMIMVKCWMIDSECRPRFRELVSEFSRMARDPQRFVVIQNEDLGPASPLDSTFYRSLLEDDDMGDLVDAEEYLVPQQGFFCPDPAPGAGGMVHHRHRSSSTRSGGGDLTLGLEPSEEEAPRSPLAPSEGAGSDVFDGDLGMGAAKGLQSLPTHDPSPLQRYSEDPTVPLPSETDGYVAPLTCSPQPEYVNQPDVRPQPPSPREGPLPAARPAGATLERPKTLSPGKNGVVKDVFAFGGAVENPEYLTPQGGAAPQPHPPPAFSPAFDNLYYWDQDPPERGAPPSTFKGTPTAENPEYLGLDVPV
Sequence of PDGFRa (P16234 24-1089, species assumed): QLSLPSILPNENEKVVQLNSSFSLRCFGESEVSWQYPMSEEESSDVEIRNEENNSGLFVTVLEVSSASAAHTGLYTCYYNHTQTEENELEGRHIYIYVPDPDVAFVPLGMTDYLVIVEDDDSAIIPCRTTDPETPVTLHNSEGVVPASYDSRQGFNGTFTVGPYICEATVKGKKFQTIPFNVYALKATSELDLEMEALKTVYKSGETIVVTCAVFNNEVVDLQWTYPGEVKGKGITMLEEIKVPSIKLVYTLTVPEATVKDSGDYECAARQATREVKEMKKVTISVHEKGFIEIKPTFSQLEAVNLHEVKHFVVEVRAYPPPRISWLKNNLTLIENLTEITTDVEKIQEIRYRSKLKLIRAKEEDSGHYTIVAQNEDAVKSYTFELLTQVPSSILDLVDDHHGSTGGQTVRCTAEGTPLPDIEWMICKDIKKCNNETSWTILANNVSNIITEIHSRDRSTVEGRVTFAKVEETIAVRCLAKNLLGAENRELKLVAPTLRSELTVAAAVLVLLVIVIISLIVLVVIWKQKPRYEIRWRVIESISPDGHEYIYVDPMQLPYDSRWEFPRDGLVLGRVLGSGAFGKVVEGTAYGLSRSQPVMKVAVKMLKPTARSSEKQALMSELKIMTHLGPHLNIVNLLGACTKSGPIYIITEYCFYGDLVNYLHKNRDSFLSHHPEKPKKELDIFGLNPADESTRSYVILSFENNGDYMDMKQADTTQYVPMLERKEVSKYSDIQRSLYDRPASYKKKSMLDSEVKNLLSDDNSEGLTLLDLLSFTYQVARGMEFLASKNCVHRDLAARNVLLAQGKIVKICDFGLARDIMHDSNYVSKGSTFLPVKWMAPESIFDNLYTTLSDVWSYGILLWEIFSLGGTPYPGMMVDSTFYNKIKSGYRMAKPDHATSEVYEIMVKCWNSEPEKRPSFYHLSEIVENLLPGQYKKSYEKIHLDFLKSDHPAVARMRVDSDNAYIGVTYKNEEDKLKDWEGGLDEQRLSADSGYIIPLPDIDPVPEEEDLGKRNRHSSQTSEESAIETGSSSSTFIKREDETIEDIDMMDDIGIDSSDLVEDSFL
Sequence of IGF1R (P08069 31-1367, species assumed): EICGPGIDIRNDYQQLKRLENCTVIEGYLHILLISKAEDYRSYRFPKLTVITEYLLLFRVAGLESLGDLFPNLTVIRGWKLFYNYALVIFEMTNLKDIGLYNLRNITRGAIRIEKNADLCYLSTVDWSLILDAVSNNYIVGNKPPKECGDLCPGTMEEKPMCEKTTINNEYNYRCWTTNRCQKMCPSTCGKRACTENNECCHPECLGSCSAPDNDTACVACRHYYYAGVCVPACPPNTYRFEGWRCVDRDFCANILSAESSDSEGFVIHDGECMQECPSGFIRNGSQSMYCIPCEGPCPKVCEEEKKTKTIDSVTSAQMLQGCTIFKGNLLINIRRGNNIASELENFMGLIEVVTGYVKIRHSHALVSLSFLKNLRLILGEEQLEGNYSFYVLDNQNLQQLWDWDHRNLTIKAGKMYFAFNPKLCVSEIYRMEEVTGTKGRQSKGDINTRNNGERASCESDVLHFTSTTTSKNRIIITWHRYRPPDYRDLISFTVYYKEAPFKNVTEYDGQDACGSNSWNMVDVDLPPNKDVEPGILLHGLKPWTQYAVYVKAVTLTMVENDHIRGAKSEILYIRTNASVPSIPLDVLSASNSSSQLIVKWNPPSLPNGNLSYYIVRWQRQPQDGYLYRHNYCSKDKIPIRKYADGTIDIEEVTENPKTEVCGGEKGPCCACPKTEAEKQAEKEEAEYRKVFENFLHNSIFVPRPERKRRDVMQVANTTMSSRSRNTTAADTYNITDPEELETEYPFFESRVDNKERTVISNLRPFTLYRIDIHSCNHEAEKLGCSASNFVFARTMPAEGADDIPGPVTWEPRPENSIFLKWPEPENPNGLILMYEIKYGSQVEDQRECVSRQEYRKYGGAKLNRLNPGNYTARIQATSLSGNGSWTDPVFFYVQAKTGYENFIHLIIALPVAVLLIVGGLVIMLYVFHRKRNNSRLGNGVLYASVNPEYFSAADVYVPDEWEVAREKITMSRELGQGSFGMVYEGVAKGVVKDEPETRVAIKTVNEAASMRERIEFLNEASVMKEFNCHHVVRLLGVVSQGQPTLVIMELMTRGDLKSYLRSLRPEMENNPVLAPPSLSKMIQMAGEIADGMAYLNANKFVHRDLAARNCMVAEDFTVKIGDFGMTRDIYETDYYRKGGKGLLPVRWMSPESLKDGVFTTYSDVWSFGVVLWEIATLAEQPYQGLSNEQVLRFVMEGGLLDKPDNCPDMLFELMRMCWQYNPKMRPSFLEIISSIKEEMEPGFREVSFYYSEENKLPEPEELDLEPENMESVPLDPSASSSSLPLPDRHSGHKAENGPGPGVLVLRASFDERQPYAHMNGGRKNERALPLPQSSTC
Sequence of CDK6 (Q00534 whole entry, species assumed): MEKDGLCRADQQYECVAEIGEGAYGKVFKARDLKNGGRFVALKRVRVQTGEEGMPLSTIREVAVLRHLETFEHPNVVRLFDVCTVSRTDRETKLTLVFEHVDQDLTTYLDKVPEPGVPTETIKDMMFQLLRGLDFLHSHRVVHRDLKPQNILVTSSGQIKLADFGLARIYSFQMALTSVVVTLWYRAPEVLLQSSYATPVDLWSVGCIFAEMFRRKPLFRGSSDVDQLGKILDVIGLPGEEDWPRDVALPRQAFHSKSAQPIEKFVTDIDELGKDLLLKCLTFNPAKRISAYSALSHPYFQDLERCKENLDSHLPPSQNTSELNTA
Sequence of CDK6 (P30281 whole entry partner, species assumed): as the sequence (P30281 whole entry partner, species assumed) above

Turning to `C=CC(=O)Nc1cccc(Nc2nc(Nc3ccc(N4CCN(C)CC4)nc3OC)ncc2C(F)(F)F)c1` [ES-072], the pIC50 (usually the IC50 on a negative log10 scale, so that one unit is a factor of ten) against CDK4 was under 5.00; on CDK6 it was under 5.00; against HER2, 6.83; at PDGFRa, 5.41; at IGF1R it was 6.90; against KDR(VEGFR2), 5.28. Also, in the assay on 4T1 tumor xenograft (4T1 cells in BALB/c mice, ES-072 60 mg/kg i.g. daily, anti-CTLA4 100 μg i.p. day 7, 10, 13), the tumor growth entry is “significantly decreased”. The “PD-L1 levels in tumor lysates” value in the assay with 4T1 tumor xenograft (4T1 tumors, western blotting) was “decreased”.
